Results taken from US20260250257A1, “ANTIBACTERIAL AND SYNERGISTIC ACTIVE COMPOUND AND USE THEREOF” (EAST CHINA UNIVERSITY OF SCIENCE AND TECHNOLOGY, priority 2023, published 2026).
Converted amounts (≈) assume the structure as drawn.

Experiments:
Format in all cases: cell-based
[1] = system: ATCC25922 strain (Escherichia coli); assay: Broth microdilution, antibacterial activity of the compound used alone; details: for MIC: read-out: Antibacterial activity of the compound of Formula I, ATCC25922
Excerpt: (§1) The broth microdilution method was used to test the antibacterial effects of the compounds of the present invention against various Gram-negative bacterial strains when used alone.

[2] = system: ATCC19606 strain (Acinetobacter baumannii); assay: as above; details: for MIC: read-out: Antibacterial activity of the compound of Formula I, ATCC19606
Excerpt: as §1

[3] = system: ATCC13883 strain (Klebsiella pneumoniae); assay: as above; details: for MIC: read-out: Antibacterial activity of the compound of Formula I, ATCC13883
Excerpt: as §1

[4] = system: ATCC9027 strain (Pseudomonas aeruginosa); assay: as above; details: for MIC: read-out: Antibacterial activity of the compound of Formula I, ATCC9027
Excerpt: as §1

[5] = system: ATCC25922 strain (Escherichia coli); assay: Checkerboard antibacterial synergistic activity test with polymyxin E (FIC); design: key: FIC≤0.5 synergy; 0.5–1 additive; 1–2 indifferent; ≥2 antagonism; details: combined with polymyxin E
Summary of the method: (§2)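 First, two-fold series of polymyxin E (16–0.015 μg/ml) and compound (256–4 μg/ml) were made in MH broth. Next, combinations went into a 96-well grid, bacterial liquid was added, and plates sat at 37° C. for 16 h. Finally, FIC was computed and classed (≤0.5 synergistic).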

[6] = system: ATCC19606 strain (Acinetobacter baumannii); assay: as above; design: key: FIC≤0.5 synergy; 0.5–1 additive; 1–2 indifferent; ≥2 antagonism; details: combined with polymyxin E
Summary of the method: as §2

[7] = system: ATCC13883 strain (Klebsiella pneumoniae); assay: as above; design: key: FIC≤0.5 synergy; 0.5–1 additive; 1–2 indifferent; ≥2 antagonism; details: combined with polymyxin E
Summary of the method: as §2

[8] = system: ATCC9027 strain (Pseudomonas aeruginosa); assay: as above; design: key: FIC≤0.5 synergy; 0.5–1 additive; 1–2 indifferent; ≥2 antagonism; details: combined with polymyxin E
Summary of the method: as §2

| Compound | Antibacterial activity of the compound of Formula I, ATCC25922 [1] [µg/mL] | Antibacterial activity of the compound of Formula I, ATCC19606 [2] [µg/mL] | Antibacterial activity of the compound of Formula I, ATCC13883 [3] [µg/mL] | Antibacterial activity of the compound of Formula I, ATCC9027 [4] [µg/mL] | Synergistic activity (FIC value) ATCC25922 [5] | Synergistic activity (FIC value) ATCC19606 [6] | Synergistic activity (FIC value) ATCC13883 [7] | Synergistic activity (FIC value) ATCC9027 [8] | MIC [1] [mg/L] | MIC [2] [mg/L] | MIC [3] [mg/L] | MIC [4] [mg/L] |
| --- | --- | --- | --- | --- | --- | --- | --- | --- | --- | --- | --- | --- |
| Cc1ccc(Oc2cccc(-c3coc(N=C(N)N)n3)c2)c(C)c1 [Compound I-92] | 256 | 256 | 256 | 256 | 0.04 | 0.38 | 0.19 | 0.04 | – | – | – | – |
| COc1ccc(Oc2cccc(-c3c[nH]c(N=C(N)N)n3)c2)c(C)c1 [Compound I-93] | 256 | 256 | 256 | 256 | 0.18 | 0.03 | 0.16 | 0.28 | – | – | – | – |
| NC(N)=Nc1nc(-c2cccc(Oc3ccccc3Cl)c2)cs1 [Compound I-94] | 256 | 256 | 256 | 256 | 0.26 | 0.04 | 0.19 | 0.52 | – | – | – | – |
| NC(N)=Nc1nc(-c2cccc(Oc3ccc(Cl)cc3Cl)c2)cs1 [Compound I-95] | 256 | 256 | 256 | 256 | 0.04 | 0.38 | 0.19 | 0.04 | – | – | – | – |
| NC(N)=Nc1nc(-c2cccc(Oc3ccccc3I)c2)cs1 [Compound I-96] | 256 | 256 | 256 | 256 | 0.18 | 0.03 | 0.16 | 0.28 | – | – | – | – |
| NC(N)=Nc1nc(-c2cccc(Oc3ccc(I)cc3I)c2)cs1 [Compound I-97] | 256 | 256 | 256 | 256 | 0.2 | 0.04 | 0.13 | 0.28 | – | – | – | – |
| COc1ccc(Oc2cccc(-c3csc(N=C(N)N)n3)c2)c(OC)c1 [Compound I-98] | 256 | 256 | 256 | 256 | 0.14 | 0.31 | 0.09 | 0.06 | – | – | – | – |
| NC(N)=Nc1nc(-c2cc(Cl)cc(Oc3ccc(Cl)cc3Cl)c2)cs1 [Compound I-99] | 256 | 256 | 256 | 256 | 0.18 | 0.03 | 0.16 | 0.28 | – | – | – | – |
| NC(N)=Nc1nc(-c2cc(F)cc(Oc3ccc(Cl)cc3Cl)c2)cs1 [Compound I-100] | 128 | 256 | 256 | 256 | 0.15 | 0.02 | 0.13 | 0.18 | – | – | – | – |
| Cc1sc(N=C(N)N)nc1-c1ccccc1Oc1ccccn1 [Compound I-101] | 256 | 256 | 256 | 256 | 1.25 | 0.25 | 1.25 | 0.52 | – | – | – | – |
| CCc1sc(N=C(N)N)nc1-c1ccccc1Oc1ccc(N2CCOCC2)cc1 [Compound I-102] | 256 | 256 | 256 | 256 | 1.25 | 1.25 | 1.25 | 0.51 | – | – | – | – |
| CS(=O)(=O)c1ccc(Oc2ccccc2-c2nc(N=C(N)N)sc2Cl)cc1 [Compound I-103] | 256 | 256 | 256 | 256 | 0.53 | 1.25 | 1.25 | 1.25 | – | – | – | – |
| NC(N)=Nc1nc(-c2cccc(Oc3ccccn3)c2)cs1 [Compound I-104] | – | – | – | – | 1.25 | 0.25 | 1.25 | 0.52 | 256 (≈ 822 µM) | 256 (≈ 822 µM) | 256 (≈ 822 µM) | 256 (≈ 822 µM) |
| NC(N)=Nc1nc(-c2cccc(Oc3ccc(N4CCOCC4)cc3)c2)cs1 [Compound I-105] | 256 | 256 | 256 | 256 | 1.25 | 1.25 | 1.25 | 0.51 | – | – | – | – |
| CS(=O)(=O)c1ccc(Oc2cccc(-c3csc(N=C(N)N)n3)c2)cc1 [Compound I-106] | – | – | – | – | 0.53 | 1.25 | 1.25 | 1.25 | 256 (≈ 659 µM) | 256 (≈ 659 µM) | 256 (≈ 659 µM) | 256 (≈ 659 µM) |
| NC(N)=Nc1nc(-c2ccc(Sc3ccccc3)cc2)cs1 [Compound I-107] | – | – | – | – | 0.53 | 1.25 | 1.25 | 1.25 | 256 (≈ 784 µM) | 256 (≈ 784 µM) | 256 (≈ 784 µM) | 256 (≈ 784 µM) |
| Cc1ccc(Sc2ccccc2-c2coc(N=C(N)N)n2)c(C)c1 [Compound I-108] | 256 | 256 | 256 | 256 | 0.18 | 0.03 | 0.16 | 0.28 | – | – | – | – |
| NC(N)=Nc1nc(-c2cccc(NC(=O)c3ccccc3)c2)cs1 [Compound I-109] | – | – | – | – | 0.27 | 1.25 | 1.25 | 1.25 | 256 (≈ 759 µM) | 256 (≈ 759 µM) | 256 (≈ 759 µM) | 256 (≈ 759 µM) |
| NC(N)=Nc1nc(-c2cccc(C(=O)Nc3ccccc3)c2)cs1 [Compound I-110] | 256 | 256 | 256 | 256 | 0.56 | 0.25 | 0.31 | 0.5 | – | – | – | – |
